Laboratory results reported in patent US7332476B2, “Pyridyl substituted ketolide antibiotics” (Novartis AG, priority 2003, dated 2008).
In brackets after ≈: the same amount, converted by molar mass.

How the values were obtained:
Assay in all cases: MIC, broth microdilution (NCCLS)
[1] = system: Streptococcus pyogenes Stpy_8668; assay type: cell-based; set-up: MIC, strain ID G: unit not given beside the values
Outline: (§1)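 NCCLS broth microdilution with 2-fold serial drug dilutions (methanol stocks diluted in water); inoculum 3×10^5–7×10^5 CFU/ml in CAMHB, with 2-5% lysed horse blood for S. pneumoniae. Incubation 18-24 h at 35° C., ambient air, except S. pneumoniae (5-10% CO2). MIC is lowest concentration preventing visible growth.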

[2] = system: S. pneumoniae Stpn_Erm 6849; assay type: cell-based, Streptococcus pneumoniae; conditions: for MIC: Table 7, Strain ID I (Table 6): S. pneumoniae Stpn_Erm 6849, unit assumed
Outline: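 S. pneumoniae MIC by NCCLS broth microdilution in cation-adjusted Mueller-Hinton broth with 2-5% lysed horse blood, inoculum 3×10^5–7×10^5 CFU/ml, 2-fold drug dilutions. Incubated 18-24 hours at 35° C. in 5-10% CO2; MIC is lowest concentration preventing visible growth.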

[3] = system: Streptococcus pneumoniae Stpn_280-962; assay type: cell-based; set-up: MIC, strain ID O: unit not given beside the values
Outline: as §1

[4] = system: Streptococcus pneumoniae Stpn_297-749; assay type: cell-based; set-up: MIC, strain ID N: unit not given here
Outline: as §1

[5] = system: Streptococcus pneumoniae Stpn_Mef S 3427; assay type: cell-based; conditions: in µg/mL (unit assumed)
Outline: as §1

[6] = system: Enterococcus faecalis Enfa_29212; assay type: cell-based; conditions: in µg/mL (unit assumed)
Outline: as §1

[7] = system: Staphylococcus epidermidis Step_f50654; assay type: cell-based; conditions: in µg/mL (unit assumed)
Outline: as §1

[8] = system: Staphylococcus epidermidis Step_14990; assay type: cell-based; conditions: in µg/mL (unit assumed)
Outline: as §1

[9] = system: Staphylococcus aureus Stau_29213; assay type: cell-based; conditions: in µg/mL (unit assumed)
Outline: as §1

[10] = system: Haemophilus influenzae Hain_49247; assay type: cell-based; conditions: unit assumed
[11] = system: Streptococcus pneumoniae Stpn_Erm S 4297; assay type: cell-based; conditions: Table 7, Strain ID J (Table 6): S. pneumoniae Stpn_Erm S 4297
Outline: as §1

[12] = system: Streptococcus pneumoniae Stpn_49619; assay type: cell-based; set-up: MIC, strain ID M: unit not given beside the values
Outline: as §1

[13] = system: Streptococcus pneumoniae Stpn_Mef 5654; assay type: cell-based; conditions: in µg/mL (unit assumed)
Method: (§2) Strains. The bacterial isolates listed in Table 4 were cultivated from −70° C. frozen stocks by two consecutive overnight passages (P1, P2) at 35° C. on 5% blood agar (Remel, Lenexa, Kans.). Chocolate agar (Remel) is used for Haemophilus influenzae. H. influenzae and Streptococcus pneumoniae are incubated in 5-10% CO2
(§3) Drug Stock Preparation. To determine the amount of solvent to be used to give the desired final concentration, the formula “weight obtained in mg/final concentration in mg/ml” will be used. It will give the amount of solvent in ml needed to be added to give the desired concentration. For example, if 2.5 mg/ml is the desired concentration and the weight of compound is 13.7 mg, then the amount of solvent to be added is […]. Methanol is used as the solvent to dissolve the test compounds. Further dilution of stock is done in sterile, deionized water. Drug stocks are kept frozen at −70° C., protected from light.
(§4) Susceptibility Testing. MICs are determined by the broth microdilution method in accordance with the NCCLS guidelines. In brief, organism suspensions are adjusted to a 0.5 McFarland standard to yield a final inoculum between 3×10^5 and 7×10^5 CFU/ml. Drug dilutions and inocula are made in sterile, cation adjusted Mueller-Hinton Broth (CAMHB) (Remel) for all but S. pneumoniae [CAMHB with 2-5% lysed horse blood (Remel)] and H. influenzae [Haemophilus Test Medium (Remel)]. An inoculum volume of 100 μl is added to wells containing 100 μl of broth with 2-fold serial dilutions of drug. All inoculated microdilution trays are incubated in ambient air at 35° C. for 18-24 hours, except for S. pneumoniae, and H. influenzae (both at 5-10% CO2).
Following appropriate incubation, the MIC is determined and the MIC is defined as the lowest concentration of the drug that prevented visible growth.
as §2, with “8” for “4”
(§5) Following appropriate incubation, the MIC is determined and the MIC is defined as the lowest concentration of the drug that prevented visible growth. […] Antibacterial activity of representative compounds of the invention were compared against telitromycin.

[14] = system: Haemophilus influenzae Hain_953460299-3; assay type: cell-based; conditions: Table 10, Strain ID K (Table 8): Haemophilus influenzae Hain_953460299-3; in µg/mL (unit assumed)
Method: as §2, with “8” for “4”
as §3, §4, §5

[15] = system: Staphylococcus aureus Stau_33591; assay type: cell-based; conditions: unit assumed
Method: as §2, with “8” for “4”
as §3, §4, §5

[16] = system: Haemophilus influenzae Hain_960820544-3; assay type: cell-based; conditions: Table 10, Strain ID J (Table 8): Haemophilus influenzae Hain_960820544-3; in µg/mL (unit assumed)
Method: as §2, with “8” for “4”
as §3, §4, §5

[17] = system: Haemophilus influenzae Hain_960730503-3; assay type: cell-based; conditions: Table 10, Strain ID I (Table 8): Haemophilus influenzae Hain_960730503-3; in µg/mL (unit assumed)
Method: as §2, with “8” for “4”
as §3, §4, §5

[18] = system: Haemophilus influenzae Hain_2762; assay type: cell-based; conditions: Table 10, Strain ID L (Table 8): Haemophilus influenzae Hain_2762; in µg/mL (unit assumed)
Method: as §2, with “8” for “4”
as §3, §4, §5

[19] = system: Enterococcus faecalis Enfa_bc 11148-2; assay type: cell-based; conditions: Table 10, Strain ID F (Table 8): Enterococcus faecalis Enfa_bc 11148-2; in µg/mL (unit assumed)
Method: as §2, with “8” for “4”
as §3, §4, §5

[20] = Table 7, Strain ID E (Table 6): S. pyogenes Stpy_8668
[21] = Table 7, Strain ID H (Table 6): S. pneumoniae Stpn_280-962
[22] = Table 7, Strain ID G (Table 6): S. pneumoniae Stpn_297-749
[23] = Table 7, Strain ID L (Table 6): S. pneumoniae Stpn_Mef S 3427
[24] = Table 7, Strain ID D (Table 6): E. faecalis Enfa_29212
[25] = Table 7, Strain ID C (Table 6): S. epidermidis Step_f50654
[26] = Table 7, Strain ID B (Table 6): S. epidermidis Step_14990
[27] = Table 7, Strain ID A (Table 6): S. aureus Stau_29213
[28] = Table 7, Strain ID M (Table 6): H. influenzae Hain_49247
[29] = Table 7, Strain ID F (Table 6): S. pneumoniae Stpn_49619
[30] = Table 7, Strain ID K (Table 6): S. pneumoniae Stpn_Mef 5654

| SMILES | MIC [1, 20] | MIC [2] | MIC [3, 21] | MIC [4, 22] | MIC [5, 23] | MIC [6, 24] | MIC [7, 25] | MIC [8, 26] | MIC [9, 27] | MIC [10, 28] | MIC [11] | MIC [12, 29] | MIC [13, 30] | also measured |
| --- | --- | --- | --- | --- | --- | --- | --- | --- | --- | --- | --- | --- | --- | --- |
| CC[C@H]1OC(=O)[C@@](C)(F)C(=O)[C@H](C)[C@@H](OC2O[C@H](C)C[C@H](N(C)C)[C@H]2O)[C@@](C)(OC)C[C@@H](C)C(=O)[C@H](C)[C@H]2N(CCCC(C)(C)n3cnc4cccnc43)C(=O)O[C@]12CC (stereo partly drawn) [Example 40, (3aS,4R,7S,9R,10R,11S,13R,15R,15aR)-3a,4-diethyl-7-fluoro-1-[4-(3H-imidazo[4,5-b]pyridin-3-yl)-4-methylpentyl]-11-methoxy-7,9,11,13,15-pentamethyl-2,6,8,14-tetraoxotetradecahydro-2H-oxacyclotetradecino[4,3-d][1,3]oxazol-10-yl-3,4,6-trideoxy-3-(dimethylamino)-D-xylo-hexopyranoside] | =0.05 | 0.2 µg/mL (≈ 0.236 µM) | =0.05 | =0.05 | 0.2 | 0.1 | 0.2 | 0.2 | 0.2 | 6.25 µg/mL (≈ 7.39 µM) | =0.05 | =0.05 | 0.78 |  |
| C=C[C@]12OC(=O)N(CCCCn3cnc(-c4cccnc4)c3)[C@@H]1[C@@H](C)C(=O)[C@H](C)C[C@](C)(OC)[C@H](OC1O[C@H](C)C[C@H](N(C)C)[C@H]1O)[C@@H](C)C(=O)[C@@H](C)C(=O)O[C@@H]2CC (stereo partly drawn) [Example 48, (3aS,4R,7R,9R,10R,11R,13R,15R,15aR)-4-ETHYL-11-METHOXY-7,9,11,13,15-PENTAMETHYL-2,6,8,14-TETRAOXO-1-[4-(4-PYRIDIN-3-YL-1H-IMIDAZOL-1-YL)BUTYL]-3a-VINYLTETRADECAHYDRO-1H-OXACYCLOTETRADECINO[4,3-D][1,3]OXAZOL-10-YL-3,4,6-TRIDEOXY-3-(DIMETHYLAMINO)-D-XYLO-HEXOPYRANOSIDE] | =0.05 | 0.4 µg/mL (≈ 0.485 µM) | =0.05 | =0.05 | 0.1 | 0.1 | 0.2 | 0.2 | 0.2 | 3.13 µg/mL (≈ 3.8 µM) | =0.05 | =0.05 | 0.78 |  |
| C/C=C\[C@]12OC(=O)N(CCCCn3cnc(-c4cccnc4)c3)[C@@H]1[C@@H](C)C(=O)[C@H](C)C[C@](C)(OC)[C@H](OC1O[C@H](C)C[C@H](N(C)C)[C@H]1O)[C@@H](C)C(=O)[C@](C)(F)C(=O)O[C@@H]2CC (stereo partly drawn) [Example 66, (3aS,4R,7S,9R,10R,11S,13R,15R,15aR)-4-ethyl-7-fluoro-11-methoxy-7,9,11,13,15-pentamethyl-2,6,8,14-tetraoxo-3a-[(1Z)-prop-1-enyl]-1-[4-(4-pyridin-3-yl-1H-imidazol-1-yl)butyl]tetradecahydro-1H-oxacyclotetradecino[4,3-d][1,3]oxazol-10-yl-3,4,6-trideoxy-3-(dimethylamino)-D-xylo-hexopyranoside] | =0.05 | 0.2 µg/mL (≈ 0.234 µM) | =0.05 | =0.05 | 0.1 | .01 | 0.2 | 0.2 | 0.2 | 6.25 µg/mL (≈ 7.3 µM) |  | =0.05 | 0.4 | MIC ([11]; unit assumed): 0.1 µg/mL (≈ 0.117 µM) |
| C=C[C@]12OC(=O)N(CCCCn3cnc(-c4ccc(N(C)C)nc4)c3)[C@@H]1[C@@H](C)C(=O)[C@H](C)C[C@](C)(OC)[C@H](OC1O[C@H](C)C[C@H](N(C)C)[C@H]1O)[C@@H](C)C(=O)[C@@H](C)C(=O)O[C@@H]2CC (stereo partly shown) [XXIV] |  |  |  |  |  |  |  |  |  |  |  |  |  | MIC ([1]; Table 10, Strain ID G (Table 8): Streptococcus pyogenes Stpy_8668): =0.05; MIC ([3]; Table 10, Strain ID O (Table 8): Streptococcus pneumoniae Stpn_280-962): =0.05; MIC ([4]; Table 10, Strain ID N (Table 8): Streptococcus pneumoniae Stpn_297-749): =0.05; MIC [14]: 12.5; MIC ([15]; Table 10, Strain ID B (Table 8): Staphylococcus aureus Stau_33591): > 50 µg/mL; MIC [16]: 6.25; MIC [17]: 12.5; MIC [18]: 1.56; MIC [19]: 0.78; MIC ([5]; Table 10, Strain ID Q (Table 8): Streptococcus pneumoniae Stpn_Mef S 3427): 0.4; MIC ([6]; Table 10, Strain ID E (Table 8): Enterococcus faecalis Enfa_29212): 0.1; MIC ([7]; Table 10, Strain ID D (Table 8): Staphylococcus epidermidis Step_f50654): 0.2; MIC ([8]; Table 10, Strain ID C (Table 8): Staphylococcus epidermidis Step_14990): 0.2; MIC ([9]; Table 10, Strain ID A (Table 8): Staphylococcus aureus Stau_29213): 0.2; MIC ([10]; Table 10, Strain ID H (Table 8): Haemophilus influenzae Hain_49247): 12.5 µg/mL (≈ 14.4 µM); MIC ([12]; Table 10, Strain ID M (Table 8): Streptococcus pneumoniae Stpn_49619): =0.05; MIC ([13]; Table 10, Strain ID P (Table 8): Streptococcus pneumoniae Stpn_Mef 5654): 1.56 |
| C#C[C@]12OC(=O)N(CCCCn3cnc(-c4ccc(C)nc4)c3)[C@@H]1[C@@H](C)C(=O)[C@H](C)C[C@](C)(OC)[C@H](OC1O[C@H](C)C[C@H](N(C)C)[C@H]1O)[C@@H](C)C(=O)[C@@H](C)C(=O)O[C@@H]2CC (stereo partly shown) [XXXIII] |  |  |  |  |  |  |  |  |  |  |  |  |  | MIC, strain ID G ([1]; strain ID G, broth microdilution): =0.05; MIC, strain ID P ([2]; strain ID P, broth microdilution, in µg/mL (unit assumed)): 1.56; MIC, strain ID O ([3]; strain ID O, broth microdilution): =0.05; MIC, strain ID N ([4]; strain ID N, broth microdilution): =0.05; MIC, strain ID B ([15]; strain ID B, broth microdilution): > 50 µg/mL; MIC, strain ID E ([6]; strain ID E, broth microdilution): 0.1; MIC, strain ID C ([8]; strain ID C, broth microdilution): 0.2; MIC, strain ID M ([12]; strain ID M, broth microdilution): =0.05 |
